Measured values as given in patent US5149707A, “1-((2-fluorophenyl)(4-fluorophenyl)phenylmethyl)-1H-imidazole useful as antifungal agent” (J. Uriach & Cia, S.A., priority 1988, dated 1992).
Values after ≈ are worked out from the molar mass of the structure shown.

Experiments:
Type in all cases: cell-based
[1] = system: C. albicans ATCC 10231; test: In vitro antifungal activity (MIC), agar dilution; settings: Candida albicans
Protocol: (§1) The antifungal activity of 1-[(2-fluorophenyl)(4-fluorophenyl)phenylmethyl]-1H-imidazole was shown by its ability to inhibit the growth of different species of yeast and filamentous fungi in vitro. The activity was recorded as the MIC value, that is, the minimum amount of product needed to achieve the complete inhibition of the in vitro growth of the test organism. Testing was performed as follows: a solution of the antifungal agent in ethanol was diluted with DST agar (pH 6.5) or Emmon's Sabouraud dextrose agar to obtain concentrations between 10 and 0.01 mcg/ml, or 80 and 0.16 mcg/m, respectively. The inoculum was standarized in order 1×10^5 cfu/ml, and 10 mcl of each organism was seeded into the agar surface. Incubation was then allowed at 30° C. during 3 days (DST) or 2 days (Emmon's) for yeasts and 10 days for filamentous fungi. Following incubation, the zones of inhibition were measured and compared to an inoculated, drug-free control to yield the MIC value.

[2] = system: C. albicans serotipo A; test: In vitro antifungal activity (MIC), agar dilution
Protocol: as §1

[3] = system: C. albicans serotipo B; test: In vitro antifungal activity (MIC), agar dilution; settings: Candida albicans
Protocol: as §1

[4] = system: C. guilliermondii (clinica); test: In vitro antifungal activity (MIC), agar dilution; settings: Meyerozyma guilliermondii
Protocol: as §1

[5] = system: C. guilliermondii SQ 2210; test: In vitro antifungal activity (MIC), agar dilution; settings: Meyerozyma guilliermondii
Protocol: as §1

[6] = system: C. tropicalis SQ 1647; test: In vitro antifungal activity (MIC), agar dilution
Protocol: as §1

[7] = system: Microsporum audouini ATCC 9079; test: In vitro antifungal activity (MIC), agar dilution
Protocol: as §1

[8] = system: Microsporum canis (clinica); test: In vitro antifungal activity (MIC), agar dilution
Protocol: as §1

[9] = system: Microsporum gypseum (-); test: In vitro antifungal activity (MIC), agar dilution; settings: Nannizzia gypsea
Protocol: as §1

[10] = system: Rhodotorula rubra; test: In vitro antifungal activity (MIC), agar dilution
Protocol: as §1

[11] = system: S. cerevisiae ATCC 9763; test: In vitro antifungal activity (MIC), agar dilution; settings: Saccharomyces cerevisiae
Protocol: as §1

[12] = system: T. mentagrophytes (clinica) (1); test: In vitro antifungal activity (MIC), agar dilution; settings: Trichophyton mentagrophytes
Protocol: as §1

[13] = system: T. mentagrophytes (clinica) (3); test: In vitro antifungal activity (MIC), agar dilution; settings: Trichophyton mentagrophytes
Protocol: as §1

[14] = system: T. mentagrophytes ATCC 9129; test: In vitro antifungal activity (MIC), agar dilution
Protocol: as §1

[15] = system: T. mentagrophytes ATCC 9972; test: In vitro antifungal activity (MIC), agar dilution; settings: Trichophyton mentagrophytes
Protocol: as §1

[16] = system: C. albicans; test: MIC distribution, serial dilutions in Sabouraud gentamycin broth, microplates; settings: # of strains = 50
Protocol: (§2) The antifungal activity of 1-[(2-fluorophenyl)(4-fluorophenyl)phenylmethyl]-1H-imidazole and bifonazole was determined by serial dilutions in Sabouraud gentamycin broth using microplates. The antifungal agent was diluted in 50% ethanol to obtain concentrations between 40 and 0.015 mcg/ml. Inoculum was 10^7 cfu/ml for yeast and 10^6 cfu/ml for dermatophytes. Incubation was allowed at 37° C. during 2 days for yeasts, and at 29° C. during 7 days for dermatophytes. MIC's were determined as in example 18. The MIC distributions obtained in 9 organisms are shown in the next tables.

[17] = system: C. guilliermondii; test: as above; settings: MIC column 40 (first); # of strains = 5
Protocol: as §2

[18] = system: C. krusei; test: as above; settings: # of strains = 5
Protocol: as §2

[19] = system: C. parapsilosis; test: as above; settings: # of strains 10 = UR-4056/14 = Bifonazole
Protocol: as §2

[20] = system: C. tropicalis; test: as above; settings: # of strains = 30
Protocol: as §2

[21] = system: M. canis; test: as above; settings: # of strains = 13
Protocol: as §2

[22] = system: T. glabrata; test: as above; settings: # of strains = 10 = UR-4056/15 Bifonzaole
Protocol: as §2

[23] = system: T. mentagrohytes; test: as above; settings: # of strains = 17
Protocol: as §2

[24] = system: T. rubrum; test: as above; settings: # of strains = 6
Protocol: as §2

[25] = Emmon's Sabouraud dextrose agar

c1ccc(-c2ccc(C(c3ccccc3)n3ccnc3)cc2)cc1 (stereo not drawn) [Bifonazole, 1-[(4-biphenyl)-phenylmethyl]-1H-imidazole, reference compound]
MIC ([1]; ATCC10231, DST agar): 1 µg/mL (≈ 3.22 µM)
MIC ([1]; ATCC10231, Emmon's Sabouraud dextrose agar): 0.63 µg/mL (≈ 2.03 µM)
MIC ([2]; Candida albicans): 2.5 µg/mL (≈ 8.05 µM)
MIC [2, 25]: 2.50 µg/mL (≈ 8.05 µM)
MIC ([3]; DST agar): 10 µg/mL (≈ 32.2 µM)
MIC [3, 25]: 20 µg/mL (≈ 64.4 µM)
MIC [4, 25]: 40 µg/mL (≈ 129 µM)
MIC ([4]; DST agar): 10 µg/mL (≈ 32.2 µM)
MIC ([5]; SQ2210, DST agar): 10 µg/mL (≈ 32.2 µM)
MIC ([5]; SQ2210, Emmon's Sabouraud dextrose agar): 5 µg/mL (≈ 16.1 µM)
MIC ([6]; Candida tropicalis, SQ1647): 10 µg/mL (≈ 32.2 µM)
MIC [6, 25]: 10.00 µg/mL (≈ 32.2 µM)
MIC ([7]; ATCC9079, DST agar): 0.05 µg/mL (≈ 0.161 µM)
MIC ([7]; ATCC9079, Emmon's Sabouraud dextrose agar): 5 µg/mL (≈ 16.1 µM)
MIC ([8]; DST agar): 0.025 µg/mL (≈ 0.0805 µM)
MIC [8, 25]: 2.5 µg/mL (≈ 8.05 µM)
MIC ([9]; DST agar): 2.5 µg/mL (≈ 8.05 µM)
MIC [9, 25]: 5 µg/mL (≈ 16.1 µM)
MIC ([10]; DST agar): 0.05 µg/mL (≈ 0.161 µM)
MIC [10, 25]: 0.04 µg/mL (≈ 0.129 µM)
MIC ([11]; ATCC9763, DST agar): 0.25 µg/mL (≈ 0.805 µM)
MIC ([11]; ATCC9763, Emmon's Sabouraud dextrose agar): 0.63 µg/mL (≈ 2.03 µM)
MIC ([12]; DST agar): 0.5 µg/mL (≈ 1.61 µM)
MIC [12, 25]: 5 µg/mL (≈ 16.1 µM)
MIC ([13]; DST agar): 1 µg/mL (≈ 3.22 µM)
MIC [13, 25]: 5 µg/mL (≈ 16.1 µM)
MIC [14, 25]: 2.50 µg/mL (≈ 8.05 µM)
MIC ([14]; Trichophyton mentagrophytes, ATCC9129): 2.5 µg/mL (≈ 8.05 µM)
MIC ([15]; ATCC9972, DST agar): 1 µg/mL (≈ 3.22 µM)
MIC ([15]; ATCC9972, Emmon's Sabouraud dextrose agar): 5 µg/mL (≈ 16.1 µM)
MIC Distribution (number of strains) ([16]; MIC 2.5): 6 # of strains
MIC Distribution (number of strains) ([16]; MIC 5.0): 28 # of strains
MIC Distribution (number of strains) ([16]; MIC column 10): 11 # of strains
MIC Distribution (number of strains) ([16]; MIC column 20): 1 # of strains
MIC Distribution (number of strains) ([16]; MIC column 40 (first)): 4 # of strains
MIC Distribution (number of strains) [17]: 5 # of strains
MIC Distribution (number of strains) ([18]; MIC 2.5): 1 # of strains
MIC Distribution (number of strains) ([18]; MIC column 10): 1 # of strains
MIC Distribution (number of strains) ([18]; MIC column 40 (first)): 3 # of strains
MIC Distribution (number of strains) ([19]; MIC 0.6): 1 # of strains
MIC Distribution (number of strains) ([19]; MIC 5.0): 1 # of strains
MIC Distribution (number of strains) ([19]; MIC column 10): 2 # of strains
MIC Distribution (number of strains) ([19]; MIC column 40 (first)): 10 # of strains
MIC Distribution (number of strains) ([20]; MIC 5.0): 2 # of strains
MIC Distribution (number of strains) ([20]; MIC column 10): 1 # of strains
MIC Distribution (number of strains) ([20]; MIC column 40 (first)): 27 # of strains
MIC Distribution (number of strains) ([21]; MIC 0.038): 1 # of strains
MIC Distribution (number of strains) ([21]; MIC 2.5): 4 # of strains
MIC Distribution (number of strains) ([21]; MIC 5.0): 5 # of strains
MIC Distribution (number of strains) ([21]; MIC column 0.078): 1 # of strains
MIC Distribution (number of strains) ([21]; MIC column 1.2): 2 # of strains
MIC Distribution (number of strains) ([22]; MIC 0.15): 1 # of strains
MIC Distribution (number of strains) ([22]; MIC 0.6): 1 # of strains
MIC Distribution (number of strains) ([22]; MIC 2.5): 3 # of strains
MIC Distribution (number of strains) ([22]; MIC 5.0): 5 # of strains
MIC Distribution (number of strains) ([22]; MIC column 10): 3 # of strains
MIC Distribution (number of strains) ([22]; MIC column 40 (first)): 2 # of strains
MIC Distribution (number of strains) ([23]; MIC 0.038): 1 # of strains
MIC Distribution (number of strains) ([23]; MIC 0.6): 1 # of strains
MIC Distribution (number of strains) ([23]; MIC 2.5): 5 # of strains
MIC Distribution (number of strains) ([23]; MIC column 1.2): 10 # of strains
MIC Distribution (number of strains) ([24]; MIC 0.038): 2 # of strains
MIC Distribution (number of strains) ([24]; MIC 0.3): 1 # of strains
MIC Distribution (number of strains) ([24]; MIC 0.6): 1 # of strains
MIC Distribution (number of strains) ([24]; MIC 5.0): 1 # of strains
MIC Distribution (number of strains) ([24]; MIC column 1.2): 1 # of strains
